Measurements taken from ChEMBL document CHEMBL1201862, “PubChem BioAssay data set” (2004).
Values belong to the molecule of their own block, whether it stands above or below them. Active and inactive are the calls of the source.

Key:
HEK293 [1] = assay: SAR Analysis of small molecule inhibitors of B-cell specific antigen receptor-induced NF-kB activation in a HEK-293T cell line using a luminescence assay - Set 2. [Related pubchem assays (depositor defined):AID435022, AID435025, AID489021]; format: functional, cell-based; conditions: Homo sapiens
Jurkat = assay: SAR Analysis of small molecule inhibitors of […] specific antigen receptor-induced NF-kB activation in a Jurkat cell line using a luminescence assay - Set 3. [Related pubchem assays (depositor defined):AID435022, AID435025, AID465]; format: functional, cell-based; conditions: Homo sapiens
HEK293 [2] = assay: HEK293T cell viability loss, resazurin readout – resazurin fluorescence, cytotoxicity control for NF-kB activator project, SAR follow-up (AID 493251); format: functional, cell-based; conditions: Homo sapiens
[3] = biological target: Tyrosine-protein kinase Blk (Homo sapiens, UniProt P51451); format: functional;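 note: obtained as one member of a kinome-wide kinase assay panel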
Sequence of Tyrosine-protein kinase Blk (P51451 whole entry): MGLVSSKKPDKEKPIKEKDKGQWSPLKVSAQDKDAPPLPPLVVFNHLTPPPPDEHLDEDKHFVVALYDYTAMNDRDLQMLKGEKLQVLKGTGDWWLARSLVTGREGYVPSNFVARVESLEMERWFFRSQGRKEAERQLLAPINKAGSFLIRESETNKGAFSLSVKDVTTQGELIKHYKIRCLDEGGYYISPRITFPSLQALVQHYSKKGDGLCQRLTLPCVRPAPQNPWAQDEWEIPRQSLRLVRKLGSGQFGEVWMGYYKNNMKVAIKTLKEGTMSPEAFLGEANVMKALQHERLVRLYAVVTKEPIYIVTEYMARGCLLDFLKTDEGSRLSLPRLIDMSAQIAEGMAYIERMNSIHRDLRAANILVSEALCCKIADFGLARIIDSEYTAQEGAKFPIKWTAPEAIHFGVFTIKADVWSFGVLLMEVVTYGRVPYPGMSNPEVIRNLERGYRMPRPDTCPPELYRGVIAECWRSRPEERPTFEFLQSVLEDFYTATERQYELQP

[4] = biological target: Tyrosine-protein kinase ABL1 (Homo sapiens, UniProt P00519); format: functional
Sequence of Tyrosine-protein kinase ABL1 (P00519 whole entry): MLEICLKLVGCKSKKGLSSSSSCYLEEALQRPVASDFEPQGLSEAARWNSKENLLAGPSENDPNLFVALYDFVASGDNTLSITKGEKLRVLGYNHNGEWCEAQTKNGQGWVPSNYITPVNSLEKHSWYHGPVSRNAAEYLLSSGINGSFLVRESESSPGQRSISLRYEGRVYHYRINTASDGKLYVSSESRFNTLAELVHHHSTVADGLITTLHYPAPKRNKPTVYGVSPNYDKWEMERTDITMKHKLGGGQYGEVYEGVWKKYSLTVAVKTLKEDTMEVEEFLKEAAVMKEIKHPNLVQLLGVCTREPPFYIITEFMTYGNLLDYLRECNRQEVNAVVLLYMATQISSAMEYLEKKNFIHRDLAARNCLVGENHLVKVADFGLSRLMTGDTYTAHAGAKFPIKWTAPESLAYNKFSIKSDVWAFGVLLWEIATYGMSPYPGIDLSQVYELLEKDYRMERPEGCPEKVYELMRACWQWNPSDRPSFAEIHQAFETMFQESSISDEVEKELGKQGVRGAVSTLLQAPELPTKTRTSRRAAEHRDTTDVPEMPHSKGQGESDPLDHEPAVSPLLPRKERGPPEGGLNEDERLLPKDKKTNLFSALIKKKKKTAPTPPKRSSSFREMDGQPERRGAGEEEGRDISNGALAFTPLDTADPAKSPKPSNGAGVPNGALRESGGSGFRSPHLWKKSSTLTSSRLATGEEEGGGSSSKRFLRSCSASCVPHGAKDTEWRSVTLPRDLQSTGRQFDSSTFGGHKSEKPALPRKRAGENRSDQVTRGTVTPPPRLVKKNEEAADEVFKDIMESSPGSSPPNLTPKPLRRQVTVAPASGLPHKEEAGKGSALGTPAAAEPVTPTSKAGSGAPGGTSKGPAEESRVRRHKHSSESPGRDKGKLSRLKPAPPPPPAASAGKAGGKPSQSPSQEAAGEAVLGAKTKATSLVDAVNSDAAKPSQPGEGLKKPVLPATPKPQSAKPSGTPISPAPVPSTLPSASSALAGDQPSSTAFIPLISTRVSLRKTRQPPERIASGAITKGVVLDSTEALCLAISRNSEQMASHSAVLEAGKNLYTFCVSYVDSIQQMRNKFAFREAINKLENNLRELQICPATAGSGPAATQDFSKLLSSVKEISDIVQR

[5] = biological target: Mast/stem cell growth factor receptor Kit (Homo sapiens, UniProt P10721); format: functional;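 note: KIT entry within a kinase panel assay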
Sequence of Mast/stem cell growth factor receptor Kit (P10721 whole entry): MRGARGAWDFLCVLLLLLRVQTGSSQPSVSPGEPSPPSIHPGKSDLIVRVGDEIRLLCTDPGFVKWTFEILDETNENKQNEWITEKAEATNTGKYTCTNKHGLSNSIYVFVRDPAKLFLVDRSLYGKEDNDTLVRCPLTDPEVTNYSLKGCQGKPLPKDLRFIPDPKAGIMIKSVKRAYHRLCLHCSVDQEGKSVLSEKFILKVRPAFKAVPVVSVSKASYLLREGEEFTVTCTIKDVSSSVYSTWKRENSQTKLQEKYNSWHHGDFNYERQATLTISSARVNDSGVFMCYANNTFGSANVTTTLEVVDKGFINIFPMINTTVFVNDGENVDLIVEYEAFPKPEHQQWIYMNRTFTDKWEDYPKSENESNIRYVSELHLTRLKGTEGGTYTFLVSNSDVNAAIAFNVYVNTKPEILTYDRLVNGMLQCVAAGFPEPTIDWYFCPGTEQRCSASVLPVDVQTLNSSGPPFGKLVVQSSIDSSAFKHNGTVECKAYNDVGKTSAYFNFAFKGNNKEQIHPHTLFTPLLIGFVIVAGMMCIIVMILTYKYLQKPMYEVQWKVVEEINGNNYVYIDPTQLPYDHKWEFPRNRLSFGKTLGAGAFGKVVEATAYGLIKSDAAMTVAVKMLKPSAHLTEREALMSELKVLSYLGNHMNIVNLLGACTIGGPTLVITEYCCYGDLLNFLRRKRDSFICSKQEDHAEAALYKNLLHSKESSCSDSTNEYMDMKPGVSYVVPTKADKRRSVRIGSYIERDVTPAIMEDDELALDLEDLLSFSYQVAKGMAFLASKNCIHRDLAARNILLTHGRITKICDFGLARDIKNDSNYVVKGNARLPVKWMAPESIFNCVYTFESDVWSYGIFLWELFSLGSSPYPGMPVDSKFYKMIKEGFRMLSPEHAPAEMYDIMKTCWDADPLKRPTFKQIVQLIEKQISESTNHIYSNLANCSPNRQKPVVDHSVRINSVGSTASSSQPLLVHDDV

[6] = biological target: Macrophage colony-stimulating factor 1 receptor (Homo sapiens, UniProt P07333); format: functional;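 note: value comes from the Navigating the Kinome screening panel, CSF1R member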
Sequence of Macrophage colony-stimulating factor 1 receptor (P07333 whole entry): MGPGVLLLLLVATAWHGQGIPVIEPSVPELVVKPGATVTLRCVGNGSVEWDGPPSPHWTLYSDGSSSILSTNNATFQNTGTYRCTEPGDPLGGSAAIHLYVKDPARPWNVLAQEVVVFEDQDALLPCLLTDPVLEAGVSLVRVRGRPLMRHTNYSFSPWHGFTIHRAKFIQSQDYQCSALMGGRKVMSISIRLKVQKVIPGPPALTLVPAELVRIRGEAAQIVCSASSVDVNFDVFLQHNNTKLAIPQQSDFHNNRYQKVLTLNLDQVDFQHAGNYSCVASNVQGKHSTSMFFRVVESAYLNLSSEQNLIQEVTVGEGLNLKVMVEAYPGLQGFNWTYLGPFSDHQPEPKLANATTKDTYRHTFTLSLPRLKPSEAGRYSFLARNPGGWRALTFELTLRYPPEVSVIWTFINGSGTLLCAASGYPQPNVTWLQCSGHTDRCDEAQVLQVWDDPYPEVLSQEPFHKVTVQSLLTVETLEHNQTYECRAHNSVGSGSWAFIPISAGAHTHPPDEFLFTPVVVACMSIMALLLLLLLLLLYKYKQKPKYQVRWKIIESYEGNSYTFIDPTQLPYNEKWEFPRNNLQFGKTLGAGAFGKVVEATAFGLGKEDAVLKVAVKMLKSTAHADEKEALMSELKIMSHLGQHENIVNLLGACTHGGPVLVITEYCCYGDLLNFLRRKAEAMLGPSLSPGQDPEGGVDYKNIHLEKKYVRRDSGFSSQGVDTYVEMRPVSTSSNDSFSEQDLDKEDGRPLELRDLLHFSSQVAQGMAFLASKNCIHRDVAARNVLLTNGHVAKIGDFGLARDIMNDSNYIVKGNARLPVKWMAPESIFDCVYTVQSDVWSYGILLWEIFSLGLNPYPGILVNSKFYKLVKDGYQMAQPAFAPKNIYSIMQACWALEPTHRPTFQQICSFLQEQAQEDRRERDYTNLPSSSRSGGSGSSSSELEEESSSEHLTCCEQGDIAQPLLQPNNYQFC

[7] = biological target: DNA dC->dU-editing enzyme APOBEC-3G (Homo sapiens, UniProt Q9HC16); assay: inhibition of APOBEC3G ssDNA deamination – biochemical, fluorescence, single-stranded DNA substrate, SAR follow-up (AID 602136); format: functional; conditions: read-out: IC50_Mean
Sequence of DNA dC->dU-editing enzyme APOBEC-3G (Q9HC16 whole entry): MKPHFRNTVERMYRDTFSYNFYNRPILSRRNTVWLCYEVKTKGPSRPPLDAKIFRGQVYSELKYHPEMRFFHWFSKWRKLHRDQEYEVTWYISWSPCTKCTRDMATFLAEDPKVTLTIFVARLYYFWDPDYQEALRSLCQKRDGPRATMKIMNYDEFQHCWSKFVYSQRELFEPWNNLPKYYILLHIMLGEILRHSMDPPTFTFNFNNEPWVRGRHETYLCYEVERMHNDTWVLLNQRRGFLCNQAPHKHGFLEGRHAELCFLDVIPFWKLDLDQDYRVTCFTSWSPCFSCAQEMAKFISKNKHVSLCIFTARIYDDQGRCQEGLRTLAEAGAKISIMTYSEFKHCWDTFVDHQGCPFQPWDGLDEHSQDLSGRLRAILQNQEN

[8] = biological target: DNA dC->dU-editing enzyme APOBEC-3A (Homo sapiens, UniProt P31941); assay: SAR analysis of small molecule inhibitors of APOBEC3A DNA Deaminase via a fluorescence-based single-stranded DNA deaminase assay.; format: functional; conditions: read-out: IC50_Mean
Sequence of DNA dC->dU-editing enzyme APOBEC-3A (P31941 whole entry): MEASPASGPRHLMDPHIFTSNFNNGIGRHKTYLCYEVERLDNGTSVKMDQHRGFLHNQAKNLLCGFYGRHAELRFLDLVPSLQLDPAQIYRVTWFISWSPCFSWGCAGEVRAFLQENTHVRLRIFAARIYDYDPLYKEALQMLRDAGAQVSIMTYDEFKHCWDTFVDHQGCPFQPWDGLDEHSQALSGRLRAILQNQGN

Genome polyprotein = Genome polyprotein (dengue virus type 2, UniProt P29990); assay: flavivirus cap methylation enzyme inhibition – biochemical, confirmation dose response, primary screen (AID 588689); format: functional
Sequence of Genome polyprotein (P29990 2492-3391 limits assumed): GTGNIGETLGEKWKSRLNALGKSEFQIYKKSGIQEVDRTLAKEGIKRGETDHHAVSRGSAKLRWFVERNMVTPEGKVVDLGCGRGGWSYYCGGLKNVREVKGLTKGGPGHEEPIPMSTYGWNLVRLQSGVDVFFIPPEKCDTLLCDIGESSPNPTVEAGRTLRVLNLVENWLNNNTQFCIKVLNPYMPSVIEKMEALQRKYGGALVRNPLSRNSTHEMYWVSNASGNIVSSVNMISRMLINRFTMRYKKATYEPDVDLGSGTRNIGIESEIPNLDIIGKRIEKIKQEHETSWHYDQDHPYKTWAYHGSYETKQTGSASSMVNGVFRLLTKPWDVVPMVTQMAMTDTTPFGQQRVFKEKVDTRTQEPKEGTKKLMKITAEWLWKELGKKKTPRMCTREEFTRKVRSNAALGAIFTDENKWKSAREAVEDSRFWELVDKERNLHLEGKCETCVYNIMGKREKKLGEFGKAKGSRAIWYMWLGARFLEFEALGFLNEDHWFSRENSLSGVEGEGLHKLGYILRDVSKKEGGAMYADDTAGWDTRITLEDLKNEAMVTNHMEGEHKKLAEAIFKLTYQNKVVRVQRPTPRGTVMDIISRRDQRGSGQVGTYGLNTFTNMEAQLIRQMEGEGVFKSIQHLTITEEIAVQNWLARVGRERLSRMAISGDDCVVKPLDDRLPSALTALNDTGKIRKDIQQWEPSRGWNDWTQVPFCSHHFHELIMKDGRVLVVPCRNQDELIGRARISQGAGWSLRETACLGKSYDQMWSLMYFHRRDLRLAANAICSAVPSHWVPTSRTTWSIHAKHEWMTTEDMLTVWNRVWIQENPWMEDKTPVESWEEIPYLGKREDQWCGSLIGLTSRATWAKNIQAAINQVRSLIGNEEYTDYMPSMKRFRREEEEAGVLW

Vero = assay: viability of Vero cells under compound – cytotoxicity control for flavivirus capping enzyme inhibitors (AID 588742); format: functional; conditions: Chlorocebus sabaeus

Compound: CCOc1ccc(-c2nc(CSCC(=O)NC(C)C)c(C)o2)cc1
IC50 (HEK293 [1]): 61.7 µM (inactive) | IC50 (Jurkat): > 80 µM (inactive) | IC50 (HEK293 [2]): > 80 µM (inactive)

Ki [3]: 0.794 µM (active) | Ki [4]: > 0.631 µM (inactive) | Ki [5]: 0.001 µM (active) | Ki [6]: 0.002 µM (active)
Compound: Cc1cc(C)cc(NC(=O)Nc2ccc(-c3ccnc4c3c(N)nn4C)cc2)c1

Compound: Cc1ccc(N2C(=O)C(=O)N(CC(=O)c3ccc[nH]3)C2=O)c(C)c1
IC50 [7]: > 99 µM (inactive) | IC50 [8]: > 99 µM (inactive)

IC50 (Genome polyprotein): 19.1 µM (active)
Compound: O=S(=O)(N=C1C=CC(=NS(=O)(=O)c2ccccc2)c2ccccc21)c1ccccc1
CC50 (Vero): 34.1 µM (active)
